The term MIC denotes the smallest concentration in the dilution series that meets the test's criterion for growth inhibition.

SMILES strings stand for the structures. Values after ≈ are worked out from the molar mass of the structure shown. Like-named read-outs stand apart in the source and are kept apart here.

The subject of data set [1] is methicillin resistant Staph. aureus (MRSA). In kind it is cell-based, Staphylococcus aureus. The settings on record: for MIC: MH medium, 37° C., 24 h; for MIC GM, MRSA: geometric mean of MIC from 8 different isolates of MRSA. The method, then:
(§1) MICs were determined by a standard microtiter dilution method in Mueller Hinton (MH) medium. Briefly, cells were grown overnight at 37° C. in MH broth and were diluted in the same medium. Serial dilutions of the peptides were added to the microtiter plates in a volume of 50 μl, followed by the addition of 50 μl of bacteria to give a final inoculum of 5×10^5 colony-forming units (CFU)/mL. The plates were incubated at 37° C. for 24 h, and the MICs were determined as the lowest peptide concentration that inhibited growth.
(§2) Various peptides of the invention were tested for antimicrobial activity as described in Example 1. The antimicrobial activity of these peptides was similarly tested against Gram-positive organisms, including Staphylococcus aureus.

The subject of data set [2] is methicillin sensitive Staph. aureus (MSSA). It is filed as cell-based, Staphylococcus aureus. The settings on record: for MIC: MH medium, 37° C., 24 h; for MIC GM, MSSA: geometric mean of MIC from 12 different isolates of MSSA. As for the experimental part: as §1, §2
The subject of the next data set is human red blood cells. The note with it: for Fold improvement in HC50: compared to D-Piscidin 1 or D-Dermaseptin S4, 18 hours.

Protocol for human red blood cells: Peptide samples (concentrations determined by amino acid analysis) were added to 1% human erythrocytes in phosphate-buffered saline (100 mM NaCl, 80 mM Na2HPO4, 20 mM NaH2PO4, pH 7.4) and the reaction mixtures were incubated at 37° C. for 18 h in microtiter plates. Two-fold serial dilutions of the peptide samples were carried out. This determination was made by withdrawing aliquots from the hemolysis assays and removing unlysed erythrocytes by centrifugation (800×g). Hemoglobin release was determined spectrophotometrically at 570 nm. The control for 100% hemolysis was a sample of erythrocytes treated with water or 0.1% Triton-X 100. The control for no release of hemoglobin was a sample of 1% erythrocytes without any peptide added. […] The hemolytic activity was determined as the peptide concentration that caused 50% hemolysis of erythrocytes after 18 h (HC50). HC50 as determined from a plot of percent lysis versus peptide concentration (μM). The inventors also determined the hemolytic activity after 1 hour at 37° C.

With `CSCC[C@@H](NC(=O)[C@@H](Cc1c[nH]c2ccccc12)NC(=O)[C@@H](CC(C)C)NC(=O)[C@@H](C)N)C(=O)N[C@@H](C(=O)N[C@H](CC(C)C)C(=O)N[C@H](CC(C)C)C(=O)N[C@H](CCCCN)C(=O)N[C@H](CCCCN)C(=O)N[C@@H](C(=O)N[C@H](CC(C)C)C(=O)N[C@H](CCCCN)C(=O)N[C@H](C)C(=O)N[C@H](C)C(=O)N[C@H](C)C(=O)N[C@H](CCCCN)C(=O)N[C@H](C)C(=O)N[C@H](CC(C)C)C(=O)N[C@H](CC(N)=O)C(=O)N[C@H](C)C(=O)N[C@@H](C(=O)N[C@H](CC(C)C)C(=O)N[C@@H](C(=O)NCC(=O)N[C@H](C)C(=O)N[C@H](CC(N)=O)C(=O)N[C@H](C)C(N)=O)C(C)C)C(C)C)C(C)C)[C@H](C)O` [D-Dermaseptin S4, reference compound], the MIC in data set [1] (MRSA strain M21742 (nose)) turned out to be 5.6 µM (≈ 15.6 µg/mL); in data set [1] (MRSA strain M21756 (nose)) it was 2.8 µM (≈ 7.78 µg/mL); in data set [1] (MRSA strain M22111 (ear)), 5.6 µM (≈ 15.6 µg/mL); in data set [1] (MRSA strain M22130), 5.6 µM (≈ 15.6 µg/mL); in data set [1] (MRSA strain M22224 (leg)), 5.6 µM (≈ 15.6 µg/mL); in data set [1] (MRSA strain M22354), 5.6 µM (≈ 15.6 µg/mL). Moreover, the minimum inhibitory concentration (MIC) was 5.6 µM (≈ 15.6 µg/mL) in data set [1] (MRSA strain M22360 (labia)); 11.3 µM (≈ 31.4 µg/mL) in data set [1] (MRSA strain M22424 (arm)); 2.8 µM (≈ 7.78 µg/mL) in data set [2] (MSSA strain BL7429); 5.6 µM (≈ 15.6 µg/mL) in data set [2] (MSSA strain M21913); 5.6 µM (≈ 15.6 µg/mL) in data set [2] (MSSA strain M21935); 5.6 µM (≈ 15.6 µg/mL) in data set [2] (MSSA strain M21991). The MIC was found to be 2.8 µM (≈ 7.78 µg/mL) in data set [2] (MSSA strain M22075); 5.6 µM (≈ 15.6 µg/mL) in data set [2] (MSSA strain M22097); 5.6 µM (≈ 15.6 µg/mL) in data set [2] (MSSA strain M22111); 11.3 µM (≈ 31.4 µg/mL) in data set [2] (MSSA strain M22274); 5.6 µM (≈ 15.6 µg/mL) in data set [2] (MSSA strain M22287); 5.6 µM (≈ 15.6 µg/mL) in data set [2] (MSSA strain M22300). For the same compound, the MIC in data set [2] (MSSA strain M22312) and in data set [2] (MSSA strain M22315) was 11.3 µM (≈ 31.4 µg/mL) in each case. Also, in data set [1], the “MIC GM, MRSA” value is 5.6 µM (≈ 15.6 µg/mL). Further, in data set [2], the “MIC GM, MSSA” value was 6.0 µM (≈ 16.7 µg/mL). For the same compound, the “Fold improvement in HC50” value in the data set on human red blood cells is given as 1.0 fold.
With `CC[C@@H](C)[C@@H](NC(=O)[C@H]1CCCN1C(=O)[C@@H](CCCNC(=N)N)NC(=O)[C@@H](Cc1ccccc1)NC(=O)[C@H](NC(=O)[C@@H](Cc1c[nH]cn1)NC(=O)[C@@H](Cc1c[nH]cn1)NC(=O)[C@@H](Cc1ccccc1)NC(=O)[C@H](N)Cc1ccccc1)[C@H](C)CC)C(=O)N[C@@H](C(=O)N[C@H](Cc1c[nH]cn1)C(=O)N[C@@H](C(=O)NCC(=O)N[C@H](CCCCN)C(=O)N[C@@H](C(=O)N[C@@H](C(=O)N[C@H](Cc1c[nH]cn1)C(=O)N[C@H](CCCNC(=N)N)C(=O)N[C@H](CC(C)C)C(=O)N[C@@H](C(=O)N[C@@H](C(=O)NCC(N)=O)[C@H](C)O)C(C)C)[C@H](C)CC)[C@H](C)O)C(C)C)C(C)C` [D-Piscidin 1 G8P], the “fold increase in hemolytic activity from 1 to 18 hours” value with human red blood cells (HC50 1 hour vs 18 hours at 37° C.) was 7 fold.
`CC[C@@H](C)[C@@H](NC(=O)CNC(=O)[C@@H](CCCNC(=N)N)NC(=O)[C@@H](Cc1ccccc1)NC(=O)[C@H](NC(=O)[C@@H](Cc1c[nH]cn1)NC(=O)[C@@H](Cc1c[nH]cn1)NC(=O)[C@@H](Cc1ccccc1)NC(=O)[C@H](N)Cc1ccccc1)[C@H](C)CC)C(=O)N[C@@H](C(=O)N[C@H](Cc1c[nH]cn1)C(=O)N[C@@H](C(=O)N[C@H](CCCCN)C(=O)N[C@H](CCCCN)C(=O)N[C@@H](C(=O)N[C@@H](C(=O)N[C@H](Cc1c[nH]cn1)C(=O)N[C@H](CCCNC(=N)N)C(=O)N[C@H](CC(C)C)C(=O)N[C@@H](C(=O)N[C@@H](C(=O)NCC(N)=O)[C@H](C)O)C(C)C)[C@H](C)CC)[C@H](C)O)C(C)C)C(C)C` [D-Piscidin 1 G13K]: the “Fold improvement in HC50” value with human red blood cells stood at 3.9 fold.
Take `CC[C@@H](C)[C@@H](NC(=O)[C@@H](Cc1c[nH]cn1)NC(=O)[C@@H](Cc1c[nH]cn1)NC(=O)[C@@H](Cc1ccccc1)NC(=O)[C@H](N)Cc1ccccc1)C(=O)N[C@H](Cc1ccccc1)C(=O)N[C@H](CCCNC(=N)N)C(=O)NCC(=O)N[C@H](CCCCN)C(=O)N[C@@H](C(=O)N[C@H](Cc1c[nH]cn1)C(=O)N[C@@H](C(=O)NCC(=O)N[C@H](CCCCN)C(=O)N[C@@H](C(=O)N[C@@H](C(=O)N[C@H](Cc1c[nH]cn1)C(=O)N[C@H](CCCNC(=N)N)C(=O)N[C@H](CC(C)C)C(=O)N[C@@H](C(=O)N[C@@H](C(=O)NCC(N)=O)[C@H](C)O)C(C)C)[C@H](C)CC)[C@H](C)O)C(C)C)C(C)C` [D-Piscidin 1 I9K]: the MIC amounted to 96.7 µM (≈ 250 µg/mL) in data set [1] (MRSA strain M21742 (nose)); 387 µM (≈ 1000 µg/mL) in data set [1] (MRSA strain M21756 (nose)); 96.7 µM (≈ 250 µg/mL) in data set [1] (MRSA strain M22111 (ear)); 12.1 µM (≈ 31.3 µg/mL) in data set [1] (MRSA strain M22130); 96.7 µM (≈ 250 µg/mL) in data set [1] (MRSA strain M22224 (leg)); 773 µM (≈ 2000 µg/mL) in data set [1] (MRSA strain M22354). Also, the MIC was determined as 3.0 µM (≈ 7.76 µg/mL) in data set [1] (MRSA strain M22360 (labia)); 773 µM (≈ 2000 µg/mL) in data set [1] (MRSA strain M22424 (arm)); 193 µM (≈ 499 µg/mL) in data set [2] (MSSA strain BL7429); 193 µM (≈ 499 µg/mL) in data set [2] (MSSA strain M21913); 387 µM (≈ 1000 µg/mL) in data set [2] (MSSA strain M21935); 193 µM (≈ 499 µg/mL) in data set [2] (MSSA strain M21991). Also, the MIC was found to be 387 µM (≈ 1000 µg/mL) in data set [2] (MSSA strain M22075); 193 µM (≈ 499 µg/mL) in data set [2] (MSSA strain M22097); 3.0 µM (≈ 7.76 µg/mL) in data set [2] (MSSA strain M22111); 773 µM (≈ 2000 µg/mL) in data set [2] (MSSA strain M22274); 773 µM (≈ 2000 µg/mL) in data set [2] (MSSA strain M22287); 773 µM (≈ 2000 µg/mL) in data set [2] (MSSA strain M22300). The MIC in data set [2] (MSSA strain M22312) and in data set [2] (MSSA strain M22315) was 773 µM (≈ 2000 µg/mL) in each case. The “MIC GM, MRSA” value in data set [1] was 96.7 µM (≈ 250 µg/mL). Besides, the “MIC GM, MSSA” value in data set [2] came to 273 µM (≈ 706 µg/mL). Further, the “% hemolysis” value with human red blood cells (1000 μg/mL (387 μM) for 1 hour) was determined as 32%. In the data set with human red blood cells (18 hours incubation), the “activity against human red blood cells” value was “inactive”. For the same compound, the “Fold improvement in HC50” value with human red blood cells stood at 54 fold.
For `CC[C@@H](C)[C@@H](NC(=O)CNC(=O)[C@@H](CCCNC(=N)N)NC(=O)[C@@H](Cc1ccccc1)NC(=O)[C@H](NC(=O)[C@@H](Cc1c[nH]cn1)NC(=O)[C@@H](Cc1c[nH]cn1)NC(=O)[C@@H](Cc1ccccc1)NC(=O)[C@H](N)Cc1ccccc1)[C@H](C)CC)C(=O)N[C@@H](C(=O)N[C@H](Cc1c[nH]cn1)C(=O)N[C@H](CCCCN)C(=O)NCC(=O)N[C@H](CCCCN)C(=O)N[C@@H](C(=O)N[C@@H](C(=O)N[C@H](Cc1c[nH]cn1)C(=O)N[C@H](CCCNC(=N)N)C(=O)N[C@H](CC(C)C)C(=O)N[C@@H](C(=O)N[C@@H](C(=O)NCC(N)=O)[C@H](C)O)C(C)C)[C@H](C)CC)[C@H](C)O)C(C)C` [D-Piscidin 1 V12K], the MIC was determined as 385 µM (≈ 1000 µg/mL) in data set [1] (MRSA strain M21742 (nose)); 385 µM (≈ 1000 µg/mL) in data set [1] (MRSA strain M21756 (nose)); 96.1 µM (≈ 250 µg/mL) in data set [1] (MRSA strain M22111 (ear)); 96.1 µM (≈ 250 µg/mL) in data set [1] (MRSA strain M22130); 96.1 µM (≈ 250 µg/mL) in data set [1] (MRSA strain M22224 (leg)); 96.1 µM (≈ 250 µg/mL) in data set [1] (MRSA strain M22354). Also, the MIC in data set [1] (MRSA strain M22360 (labia)) stood at 3.0 µM (≈ 7.8 µg/mL); in data set [1] (MRSA strain M22424 (arm)) it was 769 µM (≈ 2000 µg/mL); in data set [2] (MSSA strain BL7429) it was 385 µM (≈ 1000 µg/mL); in data set [2] (MSSA strain M21913) it was 769 µM (≈ 2000 µg/mL); in data set [2] (MSSA strain M21935), 192 µM (≈ 499 µg/mL); in data set [2] (MSSA strain M21991) it was 769 µM (≈ 2000 µg/mL). The MIC amounted to 385 µM (≈ 1000 µg/mL) in data set [2] (MSSA strain M22075); 385 µM (≈ 1000 µg/mL) in data set [2] (MSSA strain M22097); 6.0 µM (≈ 15.6 µg/mL) in data set [2] (MSSA strain M22111); 769 µM (≈ 2000 µg/mL) in data set [2] (MSSA strain M22274); 192 µM (≈ 499 µg/mL) in data set [2] (MSSA strain M22287); 24.0 µM (≈ 62.4 µg/mL) in data set [2] (MSSA strain M22300). Further, the results for the minimal inhibitory concentration (MIC) in data set [2] (MSSA strain M22312) and in data set [2] (MSSA strain M22315) were 769 µM (≈ 2000 µg/mL) and 192 µM (≈ 499 µg/mL), respectively. Besides, in data set [1], the “MIC GM, MRSA” value turned out to be 114 µM (≈ 296 µg/mL). The “MIC GM, MSSA” value in data set [2] came to 229 µM (≈ 595 µg/mL). For the same compound, the “Fold improvement in HC50” value in the data set with human red blood cells came to 19 fold.

For the origin of these results see patent publication US20190202877A1, “DERMASEPTIN-TYPE AND PISCIDIN-TYPE ANTIMICROBIAL PEPTIDES” (THE REGENTS OF THE UNIVERSITY OF COLORADO, a body corporate, priority 2014, published 2019).
